US20250179047A1, “5-[7-(3,4-DIHYDRO-1H-ISOQUINOLINE-2-CARBONYL)-1,2,3,4 TETRAHYDROISOQUINOLIN-6-YL]-1H-PYRROLE-3-CARBOXAMIDE DERIVATIVES, PHARMACEUTICAL COMPOSITIONS CONTAINING THEM AND THEIR USES AS PRO-APOPTOTIC AGENTS” (LES LABORATOIRES SERVIER, priority 2022, published 2025)
pKi: −log10 of the molar value.

Experiments:
KMS-12-PE Bcl-2 G101V = assay: In vitro cytotoxicity CellTiter-Glo 48 h, KMS-12-PE Bcl-2 G101V; type: cell-based; details: for Ratio (G101V/WT): C50 KMS-12-PE Bcl-2 G101V over C50 KMS-12-PE Bcl-2 WT; for IC50: Homo sapiens, KMS-12-PE, 48 h, CellTiter-Glo, C50 = concentration needed to reach 50% of the cellular viability
Outline: (§1)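 Potency is expressed as C50, the compound concentration at which viability of engineered KMS-12-PE cells (Bcl-2 wild type or G101V) falls to 50%, determined from CellTiter-Glo luminescence after 48 h of treatment over 11 concentrations.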

BCLXL WT = BCLXL WT (Homo sapiens (Human), UniProt Q07817); assay: TR-FRET competitive binding assay, BCLXL WT; details: for pKi: BCLXL WT, Ki determined from IC50, read-out: TR_FRET EKI BclxL; for TR_FRET EKI BCLxL/WT selectivty ratio: ratio Ki BCLxL / Ki BCL2 WT
Outline: (§2)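 Terbium-labelled N-terminal Halo-fusion BCL2 or BCLXL (E. coli), 0.5 nM, competed against fluorescein-labelled PUMA peptide (2 or 20 nM) for 2 h at 23° C in 50 mM Hepes pH 7.5, 150 mM NaCl, 5% DMSO. TR-FRET 520/495 nm ratio gave IC50 by four-parameter fit; Ki derived from IC50.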

BCL2 G101V [1] = biological target: BCL2 G101V (Homo sapiens, UniProt P10415, G101V); assay: TR-FRET competitive binding assay, BCL2 G101V; details: BCL2 G101V; Ki determined from IC50; read-out: TR_FRET EKI_Bcl2 G101V
Outline: as §2

BCL2 G101V [2] = assay: TR-FRET competitive binding assay, BCL2 G101V; design: species or system human; details: ratio Ki BCL2 G101V / Ki BCL2 WT
Outline: as §2

BCL2 WT = BCL2 WT (Homo sapiens (Human), UniProt P10415); assay: TR-FRET competitive binding assay, BCL2 WT; details: Ki determined from IC50, read-out: TR_FRET EKI_Bcl2 WT
Outline: as §2

BCL2 D103Y = BCL2 D103Y (Homo sapiens, UniProt P10415, D103Y); assay: TR-FRET competitive binding assay, BCL2 D103Y; details: Ki determined from IC50, read-out: TR_FRET EKI_Bcl2 D103Y
Outline: as §2

BCL2 D111A = BCL2 D111A (Homo sapiens, UniProt P10415, D111A); assay: TR-FRET competitive binding assay, BCL2 D111A; details: Ki determined from IC50, read-out: TR_FRET EKI_Bcl2 D111A
Procedure: The relative binding potency of each compound was determined in a competitive binding assay using time resolved-fluorescence resonance energy transfer (TR-FRET). The method utilised a fluorescein labelled peptide derived from PUMA (5Flu-Ahx-[…]-NH2 wherein Ahx means 6-hexanoic acid monomer and the amino acid sequence is referred to as SEQ ID:01) which binds to a terbium labelled BCL2 or BCLXL protein. The degree of binding or corresponding compound inhibition can be quantified by the TR-FRET signal between the terbium donor and fluorescein acceptor.
The human BCL2_wild-type (also named BCL2_wt), BCL2_G101V mutant and BCLXL_wild-type were E. coli expressed as a N-terminal Halo-fusion proteins and singly labelled with Terbium on the Halo protein to afford the following amino acid sequences:
wherein the BCL2(1-207) sequence corresponds to UniProtKB® primary accession number P10415 and the BCLXL(2-196) sequence corresponds to UniProtKB® primary accession number Q07817-1.
The assay was performed in a 40 μL volume in white 384-standard well plates (Corning #3574). An 11-point serial dilution of each compound was prepared in DMSO and transferred directly to plate followed by addition of fluorescein labelled peptide and lastly protein. Final assay conditions were 0.5 nM BCL2_wt, BCL2_G101V, BCL2_D103Y, BCL2_F104I, BCL2_D111A or BCLXL_wt, 2 or 20 nM fluorescein labelled peptide, 50 mM Hepes pH 7.5, 150 mM NaCl, 0.5 mM TCEP (Tris(2-carboxyethyl)phosphine), 0.05% Tween 20, 5% DMSO. The mixture was incubated for 2 hours at 23° C.
TR-FRET measurements were performed on a Biotek Synergy Neo plate reader. TR-FRET was measured by excitation of the Terbium-donor at 340 nm and subsequent (delay time 100 μs) measurement of terbium and fluorescein emission at 495 nm and 520 nm, respectively, over a collection time of 300 μs. The TR-FRET signal was calculated as the emission-ratio at 520 nm over 495 nm.
The TR-FRET ratio readout for test compounds was normalized against 0% inhibition controls wells and 100% inhibition control wells. Test compound potency (IC50) was estimated by nonlinear regression using the sigmoidal dose-response (variable slope) using Xlfit 4 (IDBS, Guildford, Surrey, UK, model 205). Were the IC50 could not be determined the % inhibition at the highest tested concentration is given.
y=(A+((B−A)/(1+((C/x)^D))))
where y is the normalized TR-TRET ratio measurement for a given concentration of test compound, x is the concentration of test compound, A is the estimated efficacy (% inhibition) at infinite compound dilution, and B is the maximal efficacy (% inhibition). C is the IC50 value and D is the Hill slope coefficient.
The K1 values were determined from the IC50 values according to Cer et al, Nucleic Acids Res, 2009, July 1; 37 (WebServer issue): W441-W445.

BCL2 F104I = BCL2 F104I (Homo sapiens, UniProt P10415, F104I); assay: TR-FRET competitive binding assay, BCL2 F104I; details: Ki determined from IC50, read-out: TR_FRET EKI_Bcl2 F104I
Outline: as §2

KMS-12-PE Bcl-2 WT = assay: In vitro cytotoxicity CellTiter-Glo 48 h, KMS-12-PE Bcl-2 WT; type: cell-based; details: Homo sapiens, KMS-12-PE, C50 = concentration needed to reach 50% of the cellular viability
Outline: as §1

Sequence of BCLXL WT (Q07817 other isoform, or with tags, fused parts or gaps): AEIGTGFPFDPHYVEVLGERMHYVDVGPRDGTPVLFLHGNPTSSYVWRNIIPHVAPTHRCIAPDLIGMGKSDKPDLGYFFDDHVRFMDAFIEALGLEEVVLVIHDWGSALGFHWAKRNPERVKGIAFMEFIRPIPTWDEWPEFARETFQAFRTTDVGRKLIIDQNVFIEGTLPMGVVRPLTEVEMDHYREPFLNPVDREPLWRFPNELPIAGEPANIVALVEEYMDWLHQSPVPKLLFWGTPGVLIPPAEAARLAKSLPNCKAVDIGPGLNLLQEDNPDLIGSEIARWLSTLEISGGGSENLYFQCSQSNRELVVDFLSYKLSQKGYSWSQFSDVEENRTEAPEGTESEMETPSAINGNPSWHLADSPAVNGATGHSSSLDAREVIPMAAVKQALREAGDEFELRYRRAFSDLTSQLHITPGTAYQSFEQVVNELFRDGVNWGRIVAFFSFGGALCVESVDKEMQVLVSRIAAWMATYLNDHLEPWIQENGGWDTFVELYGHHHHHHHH

Cc1c(N(C(=O)c2cc(-c3cc4c(cc3C(=O)N3Cc5ccccc5C[C@H]3C)CN(C(=O)Cc3ccc(OCCN5CCN(CC(F)F)CC5)cc3)CC4)n(C)c2C)c2ccc(O)cc2)cc(C#N)n1C [Example 47, N-(5-cyano-1,2-dimethyl-1H-pyrrol-3-yl)-5-{2-[2-(4-{2-[4-(2,2-difluoroethyl)piperazin-1-yl]ethoxy}phenyl)acetyl]-7-[(3R)-3-methyl-1,2,3,4-tetrahydroisoquinoline-2-carbonyl]-1,2,3,4-tetrahydroisoquinolin-6-yl}-N-(4-hydroxyphenyl)-1,2-dimethyl-1H-pyrrole-3-carboxamide]
Ratio (G101V/WT) (KMS-12-PE Bcl-2 G101V): 4.5 | IC50 (KMS-12-PE Bcl-2 G101V): 0.0362 µM | pKi (BCLXL WT): 8.70 | TR_FRET EKI BCLxL/WT selectivty ratio (BCLXL WT): 18.9 | pKi (BCL2 G101V [1]): 9.70 | TR_FRET EKI G101V/WT selectivty ratio (BCL2 G101V [2]): 2.0 | pKi (BCL2 WT): 9.96 | pKi (BCL2 D103Y): 9.62 | pKi (BCL2 D111A): 9.80 | pKi (BCL2 F104I): 9.34 | IC50 (KMS-12-PE Bcl-2 WT): 0.008 µM

Cc1c(N(C(=O)c2cc(-c3cc4c(cc3C(=O)N3Cc5ccccc5C[C@H]3C)CN(C(=O)Cc3ccc(C5CCN(CC(F)F)CC5)cc3F)CC4)n(C)c2C)c2ccc(O)cc2)cc(C#N)n1C [Example 48, N-(5-cyano-1,2-dimethylpyrrol-3-yl)-5-[2-(2-{4-[1-(2,2-difluoroethyl)piperidin-4-yl]-2-fluorophenyl}acetyl)-7-{[(3R)-3-methyl-3,4-dihydro-1H-isoquinolin-2-yl]carbonyl}-3,4-dihydro-1H-isoquinolin-6-yl]-N-(4-hydroxyphenyl)-1,2-dimethylpyrrole-3-carboxamide]
Ratio (G101V/WT) (KMS-12-PE Bcl-2 G101V): 6.44 | IC50 (KMS-12-PE Bcl-2 G101V): 0.0268 µM | pKi (BCLXL WT): 8.03 | TR_FRET EKI BCLxL/WT selectivty ratio (BCLXL WT): 18.8 | pKi (BCL2 G101V [1]): 8.89 | TR_FRET EKI G101V/WT selectivty ratio (BCL2 G101V [2]): 2.6 | pKi (BCL2 WT): 9.30 | pKi (BCL2 D103Y): 9.10 | pKi (BCL2 D111A): 8.79 | pKi (BCL2 F104I): 7.99 | IC50 (KMS-12-PE Bcl-2 WT): 0.0048 µM

Cc1c(N(C(=O)c2cc(-c3cc4c(cc3C(=O)N3Cc5ccccc5C[C@H]3C)CN(C(=O)Cc3ccc(OCCN5CCC(F)(F)C5)cc3)CC4)n(C)c2C)c2ccc(O)cc2)cc(C#N)n1C [Example 50, N-(5-cyano-1,2-dimethyl-1H-pyrrol-3-yl)-5-[2-(2-{4-[2-(3,3-difluoropyrrolidin-1-yl)ethoxy]phenyl}acetyl)-7-[(3R)-3-methyl-1,2,3,4-tetrahydroisoquinoline-2-carbonyl]-1,2,3,4-tetrahydroisoquinolin-6-yl]-N-(4-hydroxyphenyl)-1,2-dimethyl-1H-pyrrole-3-carboxamide]
Ratio (G101V/WT) (KMS-12-PE Bcl-2 G101V): 6.53 | IC50 (KMS-12-PE Bcl-2 G101V): 0.0341 µM | pKi (BCLXL WT): 8.24 | TR_FRET EKI BCLxL/WT selectivty ratio (BCLXL WT): 22.3 | pKi (BCL2 G101V [1]): 9.22 | TR_FRET EKI G101V/WT selectivty ratio (BCL2 G101V [2]): 2.3 | pKi (BCL2 WT): 9.59 | pKi (BCL2 D103Y): 9.24 | pKi (BCL2 D111A): 8.84 | pKi (BCL2 F104I): 8.33 | IC50 (KMS-12-PE Bcl-2 WT): 0.0052 µM

Cc1c(N(C(=O)c2cc(-c3cc4c(cc3C(=O)N3Cc5ccccc5C[C@H]3C)CN(C(=O)Cc3ccc(OCCN5CCO[C@@H](C)C5)cc3)CC4)n(C)c2C)c2ccc(O)cc2)cc(C#N)n1C [Example 57, N-(5-cyano-1,2-dimethyl-1H-pyrrol-3-yl)-N-(4-hydroxyphenyl)-1,2-dimethyl-5-{7-[(3R)-3-methyl-1,2,3,4-tetrahydroisoquinoline-2-carbonyl]-2-(2-{4-[2-((2S)-2-methylmorpholin-4-yl)ethoxy]phenyl}acetyl)-1,2,3,4-tetrahydroisoquinolin-6-yl}-1H-pyrrole-3-carboxamide]
Ratio (G101V/WT) (KMS-12-PE Bcl-2 G101V): 4.32 | IC50 (KMS-12-PE Bcl-2 G101V): 0.0208 µM | pKi (BCLXL WT): 8.77 | TR_FRET EKI BCLxL/WT selectivty ratio (BCLXL WT): 34.7 | pKi (BCL2 G101V [1]): 9.70 | TR_FRET EKI G101V/WT selectivty ratio (BCL2 G101V [2]): 4.1 | pKi (BCL2 WT): 10.30 | pKi (BCL2 D103Y): 9.82 | pKi (BCL2 D111A): 9.68 | pKi (BCL2 F104I): 9.33 | IC50 (KMS-12-PE Bcl-2 WT): 0.0048 µM
